Among the data in ChEMBL document CHEMBL5291721, “A preclinical secondary pharmacology resource illuminates target-adverse drug reaction associations of marketed drugs” (Nat Commun, 2023) are AC50 values, retold here.

As usually defined, the AC50 is the concentration at which the activity in the assay is half-maximal. Read a high AC50 as activity only at high concentration.

The target of one test is T1, Substance-K receptor (Homo sapiens, UniProt P21452).
T1 sequence (P21452 whole entry): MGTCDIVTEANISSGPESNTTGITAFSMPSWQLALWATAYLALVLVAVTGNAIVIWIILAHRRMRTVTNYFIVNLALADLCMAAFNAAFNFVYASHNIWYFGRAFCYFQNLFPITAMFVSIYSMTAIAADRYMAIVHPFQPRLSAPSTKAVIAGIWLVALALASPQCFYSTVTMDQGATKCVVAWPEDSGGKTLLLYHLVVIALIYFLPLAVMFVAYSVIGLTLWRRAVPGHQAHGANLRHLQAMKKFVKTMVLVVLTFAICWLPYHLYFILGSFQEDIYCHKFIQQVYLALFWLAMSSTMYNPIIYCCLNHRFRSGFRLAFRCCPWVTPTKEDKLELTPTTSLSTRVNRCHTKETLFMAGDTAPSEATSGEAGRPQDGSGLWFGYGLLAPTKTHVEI

For test [1], the target named is T2, Muscarinic acetylcholine receptor M5 (Homo sapiens, UniProt P08912).
T2 sequence (P08912 whole entry): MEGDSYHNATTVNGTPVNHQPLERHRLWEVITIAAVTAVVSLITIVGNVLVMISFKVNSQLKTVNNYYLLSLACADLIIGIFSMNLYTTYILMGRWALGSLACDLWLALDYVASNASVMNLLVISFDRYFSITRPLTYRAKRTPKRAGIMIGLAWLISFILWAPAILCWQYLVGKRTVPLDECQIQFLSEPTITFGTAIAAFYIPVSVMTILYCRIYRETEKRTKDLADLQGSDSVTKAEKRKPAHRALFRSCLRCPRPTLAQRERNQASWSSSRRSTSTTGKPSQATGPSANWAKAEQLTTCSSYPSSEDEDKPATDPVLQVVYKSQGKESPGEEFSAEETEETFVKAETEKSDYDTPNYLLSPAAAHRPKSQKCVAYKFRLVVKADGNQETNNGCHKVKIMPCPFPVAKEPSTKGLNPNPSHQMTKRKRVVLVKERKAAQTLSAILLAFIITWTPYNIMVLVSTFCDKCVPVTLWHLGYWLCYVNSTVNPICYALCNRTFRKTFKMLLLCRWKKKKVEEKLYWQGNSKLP

In test [2] the target is Rod cGMP-specific 3',5'-cyclic phosphodiesterase subunit alpha (Homo sapiens, UniProt P16499). The format is functional.
The target of test [3] is T3, Peroxisome proliferator-activated receptor alpha (Homo sapiens, UniProt Q07869).
T3 sequence (Q07869 whole entry): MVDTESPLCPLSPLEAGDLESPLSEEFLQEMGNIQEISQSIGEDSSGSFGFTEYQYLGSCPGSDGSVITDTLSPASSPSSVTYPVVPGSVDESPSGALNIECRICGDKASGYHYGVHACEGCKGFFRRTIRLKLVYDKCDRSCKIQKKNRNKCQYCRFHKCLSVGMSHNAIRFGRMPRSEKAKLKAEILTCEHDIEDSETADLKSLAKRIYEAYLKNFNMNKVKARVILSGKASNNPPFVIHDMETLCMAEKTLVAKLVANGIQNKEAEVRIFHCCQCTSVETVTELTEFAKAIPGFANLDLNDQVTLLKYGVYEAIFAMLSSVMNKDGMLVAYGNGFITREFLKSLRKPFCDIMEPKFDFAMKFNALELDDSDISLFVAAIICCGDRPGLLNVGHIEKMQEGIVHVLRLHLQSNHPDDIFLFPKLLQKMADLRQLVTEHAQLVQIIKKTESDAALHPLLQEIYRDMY
The format is functional.

The target of test [4] is T4, 5-hydroxytryptamine receptor 1A (Homo sapiens, UniProt P08908).
T4 sequence (P08908 whole entry): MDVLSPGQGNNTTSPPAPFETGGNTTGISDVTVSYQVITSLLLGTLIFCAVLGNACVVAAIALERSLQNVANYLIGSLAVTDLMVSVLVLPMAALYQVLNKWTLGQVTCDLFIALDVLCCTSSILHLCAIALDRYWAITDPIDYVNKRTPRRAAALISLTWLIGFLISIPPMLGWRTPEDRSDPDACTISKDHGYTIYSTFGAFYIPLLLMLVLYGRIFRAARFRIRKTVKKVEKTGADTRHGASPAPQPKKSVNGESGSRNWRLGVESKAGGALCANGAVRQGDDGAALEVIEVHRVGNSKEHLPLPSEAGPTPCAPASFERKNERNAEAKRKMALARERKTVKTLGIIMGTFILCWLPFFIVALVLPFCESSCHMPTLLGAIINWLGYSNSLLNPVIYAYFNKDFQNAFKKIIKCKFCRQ

For test [5], the target named is Prostaglandin G/H synthase 1 (Homo sapiens, UniProt P23219). The format is functional.
The target in a further test is T5, Thromboxane A2 receptor (Homo sapiens, UniProt P21731).
T5 sequence (P21731 whole entry): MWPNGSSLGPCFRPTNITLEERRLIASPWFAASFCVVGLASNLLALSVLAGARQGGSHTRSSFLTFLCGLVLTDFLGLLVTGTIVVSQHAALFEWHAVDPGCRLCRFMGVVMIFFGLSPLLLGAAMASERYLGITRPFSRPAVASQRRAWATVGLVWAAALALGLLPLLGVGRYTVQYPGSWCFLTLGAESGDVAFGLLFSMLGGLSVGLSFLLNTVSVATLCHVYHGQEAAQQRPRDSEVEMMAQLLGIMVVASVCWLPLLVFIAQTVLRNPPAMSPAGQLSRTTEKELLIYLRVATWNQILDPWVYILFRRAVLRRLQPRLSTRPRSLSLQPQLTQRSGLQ
It counts as functional, cell-based.

For test [6], the target named is T6, Amine oxidase [flavin-containing] A (Homo sapiens, UniProt P21397).
T6 sequence (P21397 whole entry): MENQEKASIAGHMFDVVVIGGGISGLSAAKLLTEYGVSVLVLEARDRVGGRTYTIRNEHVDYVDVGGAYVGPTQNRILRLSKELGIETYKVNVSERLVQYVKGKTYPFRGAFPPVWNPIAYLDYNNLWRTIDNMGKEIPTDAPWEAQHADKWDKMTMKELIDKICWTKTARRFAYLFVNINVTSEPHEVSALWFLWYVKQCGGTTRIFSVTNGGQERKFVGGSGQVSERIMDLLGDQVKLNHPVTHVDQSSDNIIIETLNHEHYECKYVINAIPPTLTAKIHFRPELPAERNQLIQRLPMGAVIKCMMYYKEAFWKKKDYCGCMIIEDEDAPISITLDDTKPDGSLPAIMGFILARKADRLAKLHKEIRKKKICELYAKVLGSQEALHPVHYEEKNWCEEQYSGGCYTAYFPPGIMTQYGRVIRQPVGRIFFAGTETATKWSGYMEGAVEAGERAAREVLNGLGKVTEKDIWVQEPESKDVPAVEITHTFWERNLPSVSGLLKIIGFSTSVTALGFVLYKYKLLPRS
The format is functional.

A value given as a limit tells only on which side of the number the result lay.
Note: assay procedure not described here.

Rod cGMP-specific 3',5'-cyclic phosphodiesterase subunit alpha, sequence (P16499 whole entry): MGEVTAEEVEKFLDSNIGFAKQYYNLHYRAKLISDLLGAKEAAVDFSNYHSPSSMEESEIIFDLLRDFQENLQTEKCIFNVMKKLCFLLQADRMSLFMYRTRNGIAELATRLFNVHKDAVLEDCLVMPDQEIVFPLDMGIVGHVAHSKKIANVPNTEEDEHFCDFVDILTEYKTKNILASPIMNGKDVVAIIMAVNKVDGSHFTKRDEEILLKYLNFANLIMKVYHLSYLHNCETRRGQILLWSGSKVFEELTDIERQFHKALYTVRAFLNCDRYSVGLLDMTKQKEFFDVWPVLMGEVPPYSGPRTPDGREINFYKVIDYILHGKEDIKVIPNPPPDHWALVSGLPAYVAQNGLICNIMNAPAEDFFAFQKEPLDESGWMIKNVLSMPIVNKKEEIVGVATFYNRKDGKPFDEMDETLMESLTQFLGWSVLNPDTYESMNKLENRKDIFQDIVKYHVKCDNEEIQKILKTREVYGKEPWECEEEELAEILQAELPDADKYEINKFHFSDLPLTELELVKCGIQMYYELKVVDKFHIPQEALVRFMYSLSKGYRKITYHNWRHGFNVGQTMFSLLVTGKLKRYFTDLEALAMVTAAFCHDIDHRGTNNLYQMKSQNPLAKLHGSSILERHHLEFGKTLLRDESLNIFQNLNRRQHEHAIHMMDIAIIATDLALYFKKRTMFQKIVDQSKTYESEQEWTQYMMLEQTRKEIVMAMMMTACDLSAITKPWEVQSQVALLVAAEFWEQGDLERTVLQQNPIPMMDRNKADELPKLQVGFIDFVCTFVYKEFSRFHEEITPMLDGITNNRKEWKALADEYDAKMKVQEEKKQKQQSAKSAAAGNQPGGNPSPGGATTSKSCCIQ
Prostaglandin G/H synthase 1, sequence (P23219 whole entry): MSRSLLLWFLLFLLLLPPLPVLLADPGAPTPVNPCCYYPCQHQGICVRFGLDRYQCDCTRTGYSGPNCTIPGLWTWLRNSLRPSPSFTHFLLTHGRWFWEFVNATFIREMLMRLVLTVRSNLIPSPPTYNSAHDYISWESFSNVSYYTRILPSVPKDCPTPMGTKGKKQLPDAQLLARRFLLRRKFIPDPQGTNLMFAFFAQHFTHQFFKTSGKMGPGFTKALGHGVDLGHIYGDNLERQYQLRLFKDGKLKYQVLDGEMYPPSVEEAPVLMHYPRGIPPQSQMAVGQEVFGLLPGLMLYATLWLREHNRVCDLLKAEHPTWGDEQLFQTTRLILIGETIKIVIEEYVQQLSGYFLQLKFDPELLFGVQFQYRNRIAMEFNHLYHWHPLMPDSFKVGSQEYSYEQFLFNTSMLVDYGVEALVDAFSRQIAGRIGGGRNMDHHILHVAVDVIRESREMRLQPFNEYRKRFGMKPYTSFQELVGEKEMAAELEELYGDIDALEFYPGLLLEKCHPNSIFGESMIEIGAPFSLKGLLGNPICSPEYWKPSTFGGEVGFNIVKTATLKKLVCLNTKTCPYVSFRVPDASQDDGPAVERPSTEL

As for `O=C(O)CCCc1ccccc1` [PHENYLBUTANOIC ACID], the AC50 (on Substance-K receptor; in test [1]) was > 10 µM throughout.

Consider `Cc1ccc(-c2nc3ccc(C)cn3c2CC(=O)N(C)C)cc1` [ZOLPIDEM], for which the AC50 (in test [2]; at Substance-K receptor; in test [1]) was > 10 µM each time.

As for `NC(=O)C[S+]([O-])C(c1ccccc1)c1ccccc1` (stereo unspecified) [MODAFINIL], the AC50 (in test [2]; on Substance-K receptor; in test [1]) was > 10 µM throughout.

Consider `CN(C)C(=O)OC1N=C(c2ccccc2)c2cc(Cl)ccc2N(C)C1=O` (stereo unspecified) [CAMAZEPAM], for which the AC50 (in test [2]; on Substance-K receptor; in test [1]) was > 10 µM throughout.

In the case of `CC(C)c1c(C(=O)Nc2ccccc2)c(-c2ccccc2)c(-c2ccc(F)cc2)n1CC[C@@H](O)C[C@@H](O)CC(=O)O` [ATORVASTATIN], in test [3], the AC50 was > 30 µM.

In the case of `CC(C)(Oc1ccc(C2CC2(Cl)Cl)cc1)C(=O)O` (stereo unspecified) [CIPROFIBRATE], the AC50 in test [3] was > 30 µM.

For `Nc1nc2ccc(OC(F)(F)F)cc2s1` [RILUZOLE], the AC50 (in test [4]; in test [5]; at Thromboxane A2 receptor; in test [6]) was > 30 µM each time.

As to BIVALIRUDIN, the AC50 (in test [4]; in test [5]; on Thromboxane A2 receptor; in test [6]) was > 30 µM in each case.
